# Article PMC6240685, “Strong Inhibitory Effect, Low Cytotoxicity and High Plasma Stability of Steroidal Inhibitors of N-Methyl-D-Aspartate Receptors With C-3 Amide Structural Motif” (Frontiers in Pharmacology, 2018)
# Structures can show the parent of a compound that is named as a salt. Where two headings read alike, the source gives them in different places.
# Experiments:
# [1] = target: T1, GluN1/GluN2D receptors (Rattus norvegicus, UniProt P35439+Q62645); parameters: method as in Petrovic et al., 2005; conditions: ref Petrovic et al., 2005; cited from earlier work
# T1 construct: expressed in transfected cells; host or cells: HEK293
# T1 sequence (Q62645 28-1323, other chains not shown): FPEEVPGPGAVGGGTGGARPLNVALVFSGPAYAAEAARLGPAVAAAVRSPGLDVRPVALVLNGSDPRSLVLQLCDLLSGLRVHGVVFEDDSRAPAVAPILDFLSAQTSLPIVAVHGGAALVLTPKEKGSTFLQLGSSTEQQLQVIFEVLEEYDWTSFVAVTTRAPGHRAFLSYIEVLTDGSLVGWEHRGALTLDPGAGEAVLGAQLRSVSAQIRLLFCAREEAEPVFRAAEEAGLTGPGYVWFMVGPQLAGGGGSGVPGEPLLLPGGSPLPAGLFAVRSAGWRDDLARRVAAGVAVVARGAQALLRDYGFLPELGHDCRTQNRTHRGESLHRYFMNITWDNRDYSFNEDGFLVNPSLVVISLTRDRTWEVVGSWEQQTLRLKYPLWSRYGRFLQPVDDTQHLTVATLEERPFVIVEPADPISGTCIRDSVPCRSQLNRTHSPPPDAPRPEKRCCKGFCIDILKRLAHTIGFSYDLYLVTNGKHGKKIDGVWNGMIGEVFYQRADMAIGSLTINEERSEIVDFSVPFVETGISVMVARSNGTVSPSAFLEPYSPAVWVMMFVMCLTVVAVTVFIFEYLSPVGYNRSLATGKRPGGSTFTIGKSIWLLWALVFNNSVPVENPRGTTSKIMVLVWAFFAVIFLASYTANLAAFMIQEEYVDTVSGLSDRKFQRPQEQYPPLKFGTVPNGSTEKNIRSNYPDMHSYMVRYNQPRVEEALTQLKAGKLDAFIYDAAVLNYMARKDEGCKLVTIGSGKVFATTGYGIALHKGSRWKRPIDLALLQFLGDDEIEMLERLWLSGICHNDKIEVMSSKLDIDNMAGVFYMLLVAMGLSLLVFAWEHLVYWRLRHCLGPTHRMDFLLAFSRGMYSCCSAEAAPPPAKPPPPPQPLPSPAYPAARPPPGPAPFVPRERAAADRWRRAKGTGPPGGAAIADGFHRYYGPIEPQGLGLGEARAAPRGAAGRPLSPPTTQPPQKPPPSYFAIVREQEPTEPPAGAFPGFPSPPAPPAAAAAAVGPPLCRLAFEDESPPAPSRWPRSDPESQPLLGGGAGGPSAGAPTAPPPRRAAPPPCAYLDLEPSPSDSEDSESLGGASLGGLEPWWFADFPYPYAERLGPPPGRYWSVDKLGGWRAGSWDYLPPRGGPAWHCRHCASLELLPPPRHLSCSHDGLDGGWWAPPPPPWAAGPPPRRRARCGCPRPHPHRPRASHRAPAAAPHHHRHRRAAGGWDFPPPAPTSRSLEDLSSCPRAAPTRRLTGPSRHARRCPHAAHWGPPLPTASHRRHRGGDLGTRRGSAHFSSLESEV
# [2] = target: T2, GluN1/GluN2C receptors (Rattus norvegicus, UniProt P35439+Q00961); parameters: method as in Petrovic et al., 2005; conditions: ref Petrovic et al., 2005; cited from earlier work
# T2 construct: expressed in transfected cells; host or cells: HEK293
# T2 sequence (Q00961 20-1237, other chains not shown): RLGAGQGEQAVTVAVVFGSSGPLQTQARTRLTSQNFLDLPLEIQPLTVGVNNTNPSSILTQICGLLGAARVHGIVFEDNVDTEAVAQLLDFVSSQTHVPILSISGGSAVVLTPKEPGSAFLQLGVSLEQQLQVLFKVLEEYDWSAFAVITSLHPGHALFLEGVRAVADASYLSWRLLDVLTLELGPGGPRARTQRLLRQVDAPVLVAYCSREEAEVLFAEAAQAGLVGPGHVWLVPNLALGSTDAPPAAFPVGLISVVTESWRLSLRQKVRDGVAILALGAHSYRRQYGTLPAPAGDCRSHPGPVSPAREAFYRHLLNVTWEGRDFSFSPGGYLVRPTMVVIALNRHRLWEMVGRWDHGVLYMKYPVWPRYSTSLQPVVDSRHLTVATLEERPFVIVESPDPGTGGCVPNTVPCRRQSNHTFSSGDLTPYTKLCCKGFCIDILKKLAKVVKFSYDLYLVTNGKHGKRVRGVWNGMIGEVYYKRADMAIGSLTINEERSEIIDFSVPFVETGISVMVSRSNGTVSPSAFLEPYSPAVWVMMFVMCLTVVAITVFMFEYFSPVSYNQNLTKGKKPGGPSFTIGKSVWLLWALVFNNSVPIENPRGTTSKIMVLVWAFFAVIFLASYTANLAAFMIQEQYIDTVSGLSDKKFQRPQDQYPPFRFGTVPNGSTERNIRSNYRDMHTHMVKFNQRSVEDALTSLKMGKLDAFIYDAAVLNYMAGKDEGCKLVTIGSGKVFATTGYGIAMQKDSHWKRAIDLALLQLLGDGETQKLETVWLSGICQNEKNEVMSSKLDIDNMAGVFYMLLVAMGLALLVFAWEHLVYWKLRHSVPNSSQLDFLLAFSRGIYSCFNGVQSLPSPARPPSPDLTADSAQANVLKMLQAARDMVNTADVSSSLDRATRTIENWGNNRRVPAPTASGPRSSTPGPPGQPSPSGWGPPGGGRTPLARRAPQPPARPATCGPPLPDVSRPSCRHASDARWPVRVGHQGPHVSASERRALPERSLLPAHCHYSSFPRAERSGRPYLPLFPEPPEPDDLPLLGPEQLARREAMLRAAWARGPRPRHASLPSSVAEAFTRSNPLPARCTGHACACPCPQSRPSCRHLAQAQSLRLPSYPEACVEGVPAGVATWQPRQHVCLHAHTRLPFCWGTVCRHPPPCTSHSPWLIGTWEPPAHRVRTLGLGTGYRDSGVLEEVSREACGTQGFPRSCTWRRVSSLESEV
# [3] = tested on: HepG2 cells; assay: Hepatotoxicity, XTT viability after 72 h; type: cell-based; conditions: Homo sapiens, read-out: Hepatotoxicity IC50, 5.5 mM glucose
# Experimental: Then, the cell viability (XTT assay) and reactive oxygen species (ROS) induction were evaluated.
# (§1) (A) Hepatotoxicity provoked by compound 4 was assessed after 72 h incubation of HepG2 cells in low glucose medium (5 mM) in the presence of compound 4 (0.25–100 μM). (B) Mitochondrial toxicity was determined after 24 h incubation of HepG2 cells in either high glucose medium (25 mM) or galactose medium (10 mM) in the presence of compound 4 (2.5–150 μM). Cell viabilities were recorded in triplicates in three independent experiments and expressed as percentage of vehicle control ± SD and IC50 values were determined by GraphPad Prism software using following equation: Y = Bottom + (Top–Bottom)/(1 + 10ˆ((LogIC50-X)^∗HillSlope)), where IC50 is the concentration of compound 4 that inhibits cell viability half way between Bottom and Top plateaus, X is compound 4 concentration and HillSlope describes the steepness of the family of curves. […] (C) Concentration-dependent effect on ROS level. HepG2 cells were treated with compound 4 (0.25–100 μM) for 72 h, and then the intracellular level of total ROS in relative fluorescence units (RFU) was detected. The data are presented as the mean ± SD for at least three independent experiments and each experiment was carried out in triplicate. Final concentration of DMSO in samples was 1%. […] Single asterisks (^∗) indicate a significant difference (P < 0.05) compared to 1% DMSO control (one-way ANOVA with Dunnett’s post-test).
# (§2) HepG2 cells (ATCC®, United Kingdom) were grown in complete Minimal Essential Medium (EMEM) (5.5 mM glucose) medium, supplemented with 10% (v/v) fetal calf serum, 200 μg/mL of streptomycin, 200 U/mL of penicillin G and 4 mM glutamine. They were cultured under a humidified atmosphere containing 5% CO2 at 37°C.
# (§3) The cytotoxicity of the tested compounds was assessed with use of XTT cell proliferation kit II (Roche Diagnostics GmbH, Mannheim, Germany) according to the manufacturer’s instructions. Briefly HepG2 cells were seeded in a 96-well plate at a density of 22,000 cells per well. After 24 h, the tested neurosteroids in a concentration range from 0.5 to 200 μM were added to the culture media and incubated for 72 h before the XTT dye was added. Mitochondrial toxicity was assessed in HepG2 cells using glucose and galactose conditioned media and XTT assay as a read out for cell viability. In brief, cells were seeded onto 96 well, clear bottom tissue culture plates at a density of 22,000 cells/well and left overnight to attach. Six hours prior to the neurosteroids treatment the media was replaced with 100 μL DMEM media containing either glucose (25 mM glucose; 1 mM pyruvate; 2 mM glutamine, 10% FBS) or galactose (10 mM galactose, 1 mM pyruvate, 6 mM glutamine, 10% FBS). After that, the tested neurosteroids in a concentration range from 0.5 to 200 μM were added in the fresh appropriate assay medium (glucose or galactose) and incubated for 24 h before the XTT dye was added. The XTT absorbance was recorded at 495 nm after 1 h incubation with the dye. Compounds were dissolved in DMSO to produce the stock solutions at the concentration of 10 mM, with exception of PAG, 1, 6 (5 mM), and 11 (2.5 mM). Results were expressed as percentages of change in viability compared to appropriate DMSO control. IC50 values were determined by GraphPad Prism version 5.00 for Windows (GraphPad Software, La Jolla, CA, United States). All experiments were done in triplicates in three independent experiments to check the reproducibility.
# [4] = target: T3, GluN1/GluN2A receptors (Rattus norvegicus, UniProt P35439+Q00959); parameters: method as in Petrovic et al., 2005; conditions: ref Petrovic et al., 2005; cited from earlier work
# T3 construct: expressed in transfected cells; host or cells: HEK293
# [5] = target: T4, GluN1/GluN2B receptors (Rattus norvegicus, UniProt P35439+Q00960); assay: Patch-clamp inhibition of glutamate responses of GluN1/GluN2B receptors in transfected HEK293 cells; type: cell-based
# T4 construct: expressed in transfected cells; host or cells: HEK293
# T4 sequence (Q00960 27-1482, other chains not shown): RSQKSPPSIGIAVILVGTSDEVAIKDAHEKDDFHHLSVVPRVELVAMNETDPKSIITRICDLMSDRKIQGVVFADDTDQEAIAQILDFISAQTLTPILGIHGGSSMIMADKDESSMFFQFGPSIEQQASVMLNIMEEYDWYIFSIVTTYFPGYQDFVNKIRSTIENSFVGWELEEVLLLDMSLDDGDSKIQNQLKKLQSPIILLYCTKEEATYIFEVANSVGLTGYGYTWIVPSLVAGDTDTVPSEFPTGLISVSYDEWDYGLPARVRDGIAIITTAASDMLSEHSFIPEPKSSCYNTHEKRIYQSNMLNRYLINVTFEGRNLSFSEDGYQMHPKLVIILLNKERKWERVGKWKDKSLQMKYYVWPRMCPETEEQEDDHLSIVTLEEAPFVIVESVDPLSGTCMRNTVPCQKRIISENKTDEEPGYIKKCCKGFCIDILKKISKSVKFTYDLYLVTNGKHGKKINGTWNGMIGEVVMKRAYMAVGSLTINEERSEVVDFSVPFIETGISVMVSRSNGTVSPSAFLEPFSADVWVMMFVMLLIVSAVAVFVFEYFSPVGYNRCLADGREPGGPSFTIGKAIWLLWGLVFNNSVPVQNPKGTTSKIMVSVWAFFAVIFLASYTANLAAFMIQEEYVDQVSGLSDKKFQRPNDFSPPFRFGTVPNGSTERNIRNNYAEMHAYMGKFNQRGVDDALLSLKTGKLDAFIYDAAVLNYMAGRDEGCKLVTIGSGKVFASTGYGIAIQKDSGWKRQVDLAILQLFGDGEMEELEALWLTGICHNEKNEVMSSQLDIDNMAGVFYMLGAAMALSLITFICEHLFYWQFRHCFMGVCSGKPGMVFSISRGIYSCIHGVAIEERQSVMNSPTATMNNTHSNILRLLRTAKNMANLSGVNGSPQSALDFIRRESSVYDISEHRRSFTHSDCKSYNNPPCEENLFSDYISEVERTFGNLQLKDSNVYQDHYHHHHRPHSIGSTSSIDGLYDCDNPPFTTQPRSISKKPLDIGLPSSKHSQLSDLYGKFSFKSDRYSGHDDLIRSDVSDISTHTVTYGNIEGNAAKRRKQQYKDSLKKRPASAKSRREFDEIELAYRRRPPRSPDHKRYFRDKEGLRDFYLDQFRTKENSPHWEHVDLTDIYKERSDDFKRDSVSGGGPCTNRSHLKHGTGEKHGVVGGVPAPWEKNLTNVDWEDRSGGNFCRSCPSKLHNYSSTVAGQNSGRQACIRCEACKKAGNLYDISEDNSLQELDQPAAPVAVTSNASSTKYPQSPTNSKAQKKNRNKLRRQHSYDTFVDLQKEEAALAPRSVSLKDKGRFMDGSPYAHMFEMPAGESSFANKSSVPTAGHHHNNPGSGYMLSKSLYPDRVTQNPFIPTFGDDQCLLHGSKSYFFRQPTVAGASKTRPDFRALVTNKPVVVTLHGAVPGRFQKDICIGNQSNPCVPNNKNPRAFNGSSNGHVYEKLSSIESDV
# [6] = tested on: HepG2 cells; assay: Mitotoxicity, XTT viability in glucose vs galactose medium; conditions: for IC50: Homo sapiens, HepG2, 24 h; for Glu/Gal index (fold change): 24 h, HepG2, index higher than 3 indicates potential mitochondrial toxicity
# Experimental: as §1, §2, §3
# [7] = target: T4, GluN1/GluN2B receptors; parameters: method as in Petrovic et al., 2005; conditions: ref Petrovic et al., 2005; cited from earlier work
# [8] = tested on: HepG2 cells; assay: ROS induction (CM-H2DCFDA); type: cell-based
# Experimental: as §1
# The effect of neurosteroids on oxidative stress was determined using general oxidative stress indicator CM-H2DCFDA (Thermo Fisher Scientific, Waltham, MA, United States) according to the manufacturer’s instructions. Briefly HepG2 cells were seeded in a 96-well plate at a density of 13,500 cells per well. After 24 h, the tested neurosteroids were added to the culture media and incubated for 72 h. Subsequently, cells were washed with HBSS, treated with 100 μL of 1 μM CM-H2DCF-DA solution in HBSS and incubated for 1 h in the dark at 37°C. Finally, cells were washed three times with HBSS and the fluorescence was measured using 495 excitation and 527 emission in fluorescence microplate reader (Cytation 3, Winooski, VT, United States). IC50 index values were determined by GraphPad Prism version 5.00 for Windows (GraphPad Software, La Jolla, CA, United States).
# [9] = parameters: method as in Holubova et al., 2014; conditions: ref Holubova et al., 2014; cited from earlier work
# [10] = parameters: method as in Rambousek et al., 2011; conditions: after bilateral NMDA-induced lesions to the hippocampus; ref Rambousek et al., 2011; cited from earlier work
# [11] = Plasma stability, rat plasma; type: in vitro ADME
# [12] = parameters: method as in Rambousek et al., 2011; conditions: ref Rambousek et al., 2011, cited from earlier work
# [13] = parameters: method as in Kleteckova et al., 2014; conditions: induced by endothelin-1, immature rats; ref Kleteckova et al., 2014; cited from earlier work
# [14] = Plasma stability, human plasma; type: in vitro ADME
# Experimental: Then, 37.8 μL of stock solution was added to 1400 μL of human plasma, maintained at 37°C. Aliquots (50 μL) withdrawn at 0, 1, 4, 8, and 24 h were analyzed by HPLC. […] The supernatant was transferred to an autosampler vial and 1 μL was injected onto LC-MS system. The samples were analyzed with an Agilent 1260 HPLC (Agilent Technologies) coupled to ESI-TOF Agilent 6530 (Agilent Technologies) with Agilent Jet Stream Technology. Samples were separated on a Waters ACQUITY UPLC CSH Phenyl-Hexyl (100 × 2.1, 130 Å, 1.7 μm) at a flow rate 0.3 ml/min. […] The mass spectrometry instrument was operated in a negative ion mode with a voltage of +3.00 kV applied to the capillary. The temperature, the flow rate of the nitrogen drying gas, the pressure of the nitrogen nebulizing gas, and the flow rate of the sheath gas were set at 325°C, 10 l/min, 40 psi, 390°C, and 11 l/min, respectively. Results are represented as a percentage of a compound remaining in spiked human plasma.
# [15] = read-out: Mitotoxicity IC50, 10 mM galactose
# [16] = read-out: Mitotoxicity IC50, 25 mM glucose
# [17] = Homo sapiens, HepG2, 72 h, read-out: ROS induction EC50
# [18] = as repeated in Table 2, read-out: IC50
# [19] = current responses to glutamate, HEK293, IC50 from single steroid dose, Hill coefficient fixed at 1.2, read-out: IC50 ± SD
# [20] = Homo sapiens, HepG2, 72 h; read-out: ROS induction EC50
Structure (SMILES),"IC50 ([3]; HepG2, 72 h) [µM]",IC50 [5] [µM],"IC50 [6, 15] [µM]","IC50 [6, 16] [µM]","EC50 [8, 17] [µM]",Glu/Gal index (fold change) [6],"IC50 ([3]; 72 h, HepG2, 5.5 mM glucose) [µM]",melting point [°C],ΔGexp [5] [kcal/mol],"IC50 [5, 18] [µM]","IC50 [5, 19] [µM]","remaining at 8 h, 42.1 μg/mL ([11]; rat, plasma) [%]","EC50 [8, 20] [µM]","remaining at 8 h, 42.1 μg/mL ([14]; human, plasma) [%]",further results
"CC(=O)[C@H]1CC[C@H]2[C@@H]3CC[C@@H]4C[C@H](OS(=O)(=O)O)CC[C@]4(C)[C@H]3CC[C@]12C [PAS, 20-oxo-5β-pregnan-3α-yl sulfate, reference compound]",> 200,24.6 ± 5.3,> 200,> 200,> 200,,,,,,,,,,IC50 [1]: 30.1 µM; IC50 [2]: 25.6 µM; IC50 [4]: 50 µM; IC50 [7]: 44.4 µM
"CC(=O)C1CCC2C3CCC4CC(OC(=O)C(N)CCC(=O)O)CCC4(C)C3CCC12C (centres unmarked) [PAG, pregnanolone glutamate, reference compound]",62 ± 9,51.7 ± 8.6,58 ± 7,115 ± 13,80 ± 11,1.97,,,,,,,,,"behaviour in elevated plus maze (EPM) and forced swimming models [9]: anxiolytic-like and antidepressant-like properties; behavioral performance in active allothetic place avoidance tasks (AAPA) [10]: improved behavioral performance; neuronal damage in the dentate gyrus and subiculum [10]: significantly ameliorated neuronal damage; remaining at 8 h, 42.1 μg/mL ([11]; rat plasma, 8 h, 37°C, read-out: Plasma stability (% remaining after 8 h), Rat): 82%; excitotoxic damage of brain tissue and subsequent behavioral impairment ([12]; rats): reduced excitotoxic damage of brain tissue and subsequent behavioral impairment; psychotomimetic symptoms (hyperlocomotion, sensorimotor gating deficit) [12]: does not induce psychotomimetic symptoms; effect in focal cerebral ischemia model [13]: neuroprotective effect; remaining at 8 h, 42.1 μg/mL ([14]; human plasma, 8 h, 37°C, read-out: Plasma stability (% remaining after 8 h), Human): 94%"
"CC(C)(C)OC(=O)N[C@H](CCC(=O)N[C@@H]1CC[C@@]2(C)[C@H](CC[C@H]3[C@@H]4CCC[C@@]4(C)CC[C@@H]32)C1)C(=O)O [Compound 11, (R)-2-((tert-butoxycarbonyl)amino)-5-(((3R,5R,8S,9S,10S,13S,14S)-10,13-dimethylhexadecahydro-1H-cyclopenta[a]phenanthren-3-yl)amino)-5-oxopentanoic acid]",,,193 ± 17,193 ± 13,,1,91 ± 5,125 to 128,-7.49,3.4,3.4 ± 0.1,100,103 ± 8,100,
"CC(C)(C)OC(=O)N[C@@H](CC(=O)N[C@@H]1CC[C@@]2(C)[C@H](CC[C@H]3[C@@H]4CCC[C@@]4(C)CC[C@@H]32)C1)C(=O)O [Compound 9, (S)-2-((tert-butoxycarbonyl)amino)-4-(((3R,5R,8S,9S,10S,13S,14S)-10,13-dimethylhexadecahydro-1H-cyclopenta[a]phenanthren-3-yl)amino)-4-oxobutanoic acid]",,,> 200,> 200,,,> 200,154 to 157,-7.33,4.5,4.5 ± 0.6,99,> 200,100,
